Test results as given in patent publication US10640441B2, “Difluorinated compounds as depigmenting or lightening agents” (TFCHEM, priority 2016, dated 2020).
Values joined by “and” are separate entries in the source; they are usually repeats but may differ in a detail not shown here. Equal values may be shown once.

Tests used:
human tyrosinase = experiment: Inhibition of human tyrosinase in-tubo (HumanLike Tyrosinase Assay kit, Feldan); assay type: biochemical; conditions: 1.12 mM
Experimental: The efficacy of compound 8 was evaluated by the inhibition of human tyrosinase in-tubo and compared to the prior art compound deoxyarbutin.
The assay was performed with a ready-to-use kit from Feldan Inc (Canada): the HumanLike Tyrosinase Assay kit (ref A021-a-001Kit).
The protocol was performed as described in the instructions for use of the manufacturer. Briefly, this kit is intended for the determination of human tyrosinase activity in presence of different inhibitors. The kit measures the conversion of L-Tyrosine into a dopachrome complex absorbing at 490 nm. The time course of the assay is 20 minutes, after which the results are analyzed and compared.
The compound 8 and deoxyarbutin have been tested at a final concentration of 1.12 mM. The measured absorbances at 490 nm are reported in the table 1 and plotted in function of time in the FIG. 1.
Moreover for each compound the efficacy as tyrosinase inhibitor was calculated using the following formula: […]

[1] = tested on: normal human epidermal melanocytes (NHEM); experiment: Inhibition of melanin synthesis in L-tyrosine-stimulated human epidermal melanocytes; assay type: cell-based; conditions: 300 μM; stimulation by L-tyrosine (1 mM); 240 hours; n=3
Experimental: Human melanocytes are stimulated by L-tyrosine to induce an increase of the melanin synthesis and be able to measure an inhibition of this synthesis when a whitening agent is added.
Biological model: normal human epidermal melanocytes (NHEM), lightly pigmented, were cultured in medium M254 supplemented with PMA free HMGS-2; Insulin 5 ag/ml; Penicillin 50 U/ml; Streptomycin 50 ag/ml; Gentamycin 25 μg/ml (incubator: 37° C. and 5% CO2).
Culture and treatment: melanocytes were seeded in 24-well plates and cultured in culture medium for 24 hours. The medium was then replaced by culture medium containing the test compounds or not (stimulated control) in presence of the inducer (L-tyrosine at 1 mM). The cells were then incubated for 240 hours with 2 treatment renewals after 72 and 168 hours of incubation. A non-stimulated control was performed in parallel. All experimental conditions were performed in n=3.
Melanin assay: at the end of incubation, the culture supernatants were removed and the melanin was extracted by cell lysis using a 0.5 N NaOH solution. The optical density (OD) of each experimental point was measured at 405 nm and melanin quantity was calculated using melanin standards (standard curve 0.39 to 100 μg/ml melanin). Results were expressed in […] of melanin.

NHEM culture = experiment: Determination of the higher non-cytotoxic concentration on NHEM culture; assay type: cell-based, human
Experimental: The compounds have been tested beforehand at different concentrations on the NHEM culture to determine the higher non-cytotoxic concentration to be used to evaluate the potential inhibition of melanin synthesis. The determined concentration was 300 μM for all compounds: 8, 16, 28a.

| SMILES | Inhibitor efficacy (%) (human tyrosinase; T = 20 min) | OD at 490 nm (human tyrosinase; time 0 min) | OD at 490 nm (human tyrosinase; time 1 min) | OD at 490 nm (human tyrosinase; time 2 min) | OD at 490 nm (human tyrosinase; time 3 min) | OD at 490 nm (human tyrosinase; time 4 min) | OD at 490 nm (human tyrosinase; time 5 min) | OD at 490 nm (human tyrosinase; time 6 min) | OD at 490 nm (human tyrosinase; time 7 min) | OD at 490 nm (human tyrosinase; time 8 min) | OD at 490 nm (human tyrosinase; time 9 min) | OD at 490 nm (human tyrosinase; time 10 min) | OD at 490 nm (human tyrosinase; time 11 min) | OD at 490 nm (human tyrosinase; time 12 min) | OD at 490 nm (human tyrosinase; time 13 min) | OD at 490 nm (human tyrosinase; time 14 min) | OD at 490 nm (human tyrosinase; time 15 min) | Melanin synthesis (μg/ml), single replicates [1] | Melanin synthesis, Mean [1] | higher non-cytotoxic concentration (NHEM culture) | other results |
| --- | --- | --- | --- | --- | --- | --- | --- | --- | --- | --- | --- | --- | --- | --- | --- | --- | --- | --- | --- | --- | --- |
| Oc1ccc(OC2CCCCO2)cc1 (stereo not drawn) [Deoxyarbutin, deoxyarbutin, reference compound] | 9.4% | 0.0000 | 0.0100 | 0.0195 | 0.0290 | 0.0385 | 0.0480 | 0.0585 | 0.0695 | 0.0800 | 0.0935 | 0.1035 | 0.1155 | 0.1265 | 0.1385 | 0.1500 | 0.1615 | – | – | – | OD at 490 nm (human tyrosinase; time 16 min): 0.1735; OD at 490 nm (human tyrosinase; time 17 min): 0.1846; OD at 490 nm (human tyrosinase; time 18 min): 0.1975; OD at 490 nm (human tyrosinase; time 19 min): 0.2095; OD at 490 nm (human tyrosinase; time 20 min): 0.2220 |
| Oc1ccc(O[C@@H]2[C@H](O)[C@@H](O)CCC2(F)F)cc1 [Compound 8] | 32.0% | 0.0000 | 0.0080 | 0.0170 | 0.0245 | 0.0345 | 0.0415 | 0.0505 | 0.0610 | 0.0675 | 0.0755 | 0.0845 | 0.0935 | 0.1015 | 0.1090 | 0.1165 | 0.1255 | 9.2 μg/ml (2×) and 9.4 μg/ml | 9.3 µg/mL | 300 µM | times better efficacy than deoxyarbutin on human tyrosinase inhibition (human tyrosinase; T = 20 min): 3.4 times; OD at 490 nm (human tyrosinase; time 16 min): 0.1355; OD at 490 nm (human tyrosinase; time 17 min): 0.1405; OD at 490 nm (human tyrosinase; time 18 min): 0.1495; OD at 490 nm (human tyrosinase; time 19 min): 0.1575; OD at 490 nm (human tyrosinase; time 20 min): 0.1665 |
| N[C@@H]1CCCC(F)(F)[C@@H]1Oc1ccc(O)cc1 [Compound 28a] | – | – | – | – | – | – | – | – | – | – | – | – | – | – | – | – | – | 9.9 µg/mL and 10.5 µg/mL and 10.2 µg/mL | 10.2 µg/mL | 300 µM | – |
| Oc1ccc(OC2C(O)CCCC2(F)F)cc1 (racemic) [Compound 16] | – | – | – | – | – | – | – | – | – | – | – | – | – | – | – | – | – | 7.9 μg/ml and 8.2 μg/ml (2×) | 8.1 µg/mL | 300 µM | – |
